In PMC3131587, “Sulfotyrosine Recognition as Marker for Druggable Sites in the Extracellular Space” (International Journal of Molecular Sciences, 2011):

Assays:
CXCL12 = biological target: T1, CXCL12 (Homo sapiens, UniProt P48061); test: 2D 1H-15N HSQC NMR titration; assay type: binding; conditions: 25 mM d-MES pH 6.8, 37 °C; 250 μM protein; 0-100 mM ligand; shifts at the sTyr21 and sTyr12 sites
T1 construct: [U-15N] recombinant mature chemokine, signal peptide removed; predominantly monomer under assay conditions

CCL5 = biological target: T2, CCL5 (Homo sapiens, UniProt P13501); test: 2D 1H-15N HSQC NMR titration; assay type: binding; conditions: 50 mM NaPO4 pH 3.2, 25 °C; 125 μM protein (dimeric); 0-100 mM ligand
T2 construct: [U-15N] recombinant mature chemokine, signal peptide removed; dimeric in the assay
T2 sequence (P13501 24-91): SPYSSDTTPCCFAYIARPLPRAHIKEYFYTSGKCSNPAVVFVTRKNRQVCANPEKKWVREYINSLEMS

CX3CL1 = biological target: T3, CX3CL1 (Homo sapiens, UniProt P78423); test: 2D 1H-15N HSQC NMR titration; assay type: binding; conditions: unbuffered pH 3.6, 25 °C; 250 μM protein; 0-100 mM ligand
T3 sequence (P78423 25-100): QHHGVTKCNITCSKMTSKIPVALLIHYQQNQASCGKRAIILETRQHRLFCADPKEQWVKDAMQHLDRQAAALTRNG

CCL5 (Homo sapiens) = CCL5 (Homo sapiens) (UniProt P13501); conditions: cited from earlier work

Compound: N[C@@H](Cc1ccc(OS(=O)(=O)O)cc1)C(=O)O [sulfotyrosine]
- chemical shift perturbation (CXCL12): HSQC spectral overlays (Figure 4A) demonstrate significant chemical shift perturbations in the chemokine
- chemical shift perturbation (CCL5): Residues His23, Lys45, and Arg47 identified in our titration
- chemical shift perturbation (CX3CL1): Sulfotyrosine titration produced significant perturbations in CX3CL1 residues

Compound: CCL5 (from UniProt P13501)
- Kd (CCL5 (Homo sapiens)): 35 µM
